# In US20240083886A1, “HETEROCYCLIC GLP-1 AGONISTS” (Gasherbrum Bio, Inc., priority 2020, published 2024):
# pEC50: −log10 of the molar value.
# Target: GLP-1 Receptor (Homo sapiens, UniProt P43220)
# Assay: GLP-1R agonist cAMP stimulation assay
# Format: cell-based
# Settings: not given
# Procedure: Activation of GLP-1 receptor is known to stimulate cyclic AMP (cAMP) production in cells which indicates primary coupling to the Gαs subunit of the G protein heterotrimeric complex.
# To optimize functional activity directed toward Gαs coupling, a HEK293/CRE-Luc cell line developed by HDB stably expressing the GLP-1 Receptor was used. 200× concentration of compound working solutions were prepared (Agilent Technologies Bravo) with ½ log serial dilution in 384-well Echo LDV plate (Labcyte, Cat #LP-0200). 50 nL/well 200× concentration of compound working solutions were moved to 384-well white low volume plate (Greiner, Cat #784075) using Labcyte ECHO550. 1×10^5 cells/mL HEK293/GLP1R/CRE-LUC(HD Biosciences) cell suspensions prepared with assay buffer[DPBS containing 0.5 mM IBMX(Sigma, Cat #15879) and 0.1% BSA (GENVIEW, Cat #FA016-100 g)], 10 uL cell suspensions were added to each well of previous generated assay plate which already contains 50 nl compound at 200×concentration using ThermoFisher Multidrop Combi (1000 cells/well). Seal the plate and incubate at 37° C. with 5% CO2 for 30 min.
# After incubation the cAMP assay signal was generated using cAMP dynamic 2 Kit (Cisbio). 5 μL cAMP-d2 working solution was added to each well, followed with 5 μL Anti-cAMP antibody-cryptate working solution added to each well using ThermoFisher Multidrop Combi. Incubate at room temperature for 1 hour protected from light. Read the fluorescence at 665 and 615 nm with Reader PerkinElmer EnVision.
# % Activity=100%×(mean RLU of test sample−mean RLU of vehicle control)/(mean RLU of MAX control−mean RLU of vehicle control))
# Sequence of GLP-1 Receptor (P43220 24-463, species assumed): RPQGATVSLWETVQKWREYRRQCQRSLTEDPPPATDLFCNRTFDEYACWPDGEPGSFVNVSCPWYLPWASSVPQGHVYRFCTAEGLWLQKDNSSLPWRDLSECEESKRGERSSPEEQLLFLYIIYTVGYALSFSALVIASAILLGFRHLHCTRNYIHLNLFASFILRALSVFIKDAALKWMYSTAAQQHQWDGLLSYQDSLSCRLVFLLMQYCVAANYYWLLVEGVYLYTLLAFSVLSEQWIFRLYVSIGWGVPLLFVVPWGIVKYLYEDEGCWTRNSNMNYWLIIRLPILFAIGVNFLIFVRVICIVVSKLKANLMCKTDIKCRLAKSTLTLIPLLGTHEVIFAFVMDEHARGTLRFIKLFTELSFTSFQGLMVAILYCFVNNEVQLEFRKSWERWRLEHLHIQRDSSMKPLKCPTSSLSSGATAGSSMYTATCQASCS
row,pEC50,SMILES
1,9.60,"Cc1nnc(-c2cc3nc(CN4CCC(Oc5nc(Cc6ccc(Cl)cc6)ncc5F)CC4)n(C[C@@H]4CCO4)c3cn2)[nH]1 [Compound 163a, 2-[(4-chlorophenyl)methyl]-5-fluoro-4-[(1-{[6-(5-methyl-4H-1,2,4-triazol-3-yl)-3-{[(2S)-oxetan-2-yl]methyl}-3H-imidazo[4,5-c]pyridin-2-yl]methyl}piperidin-4-yl)oxy]pyrimidine]"
2,8.74,"Fc1cc(Cl)ccc1Cc1nccc(OC2CCN(Cc3nc4cc(-c5nnc[nH]5)ncc4n3C[C@@H]3CCO3)CC2)n1 [Compound 166a, 2-[(4-chloro-2-fluorophenyl)methyl]-4-({1-[(3-{[(2S)-oxetan-2-yl]methyl}-6-(4H-1,2,4-triazol-3-yl)-3H-imidazo[4,5-c]pyridin-2-yl)methyl]piperidin-4-yl}oxy)pyrimidine]"

# Same assay, conditions: HEK293/GLP1R/CRE-LUC cells, cAMP dynamic 2 Kit (Cisbio), 30 min incubation at 37° C.; read-out: EC50
row,pEC50,SMILES
1,7.92,"O=C(O)c1ccc2c(c1)nc(CN1CCC(Oc3nc(Cc4ccc(Cl)cc4F)ncc3F)CC1)n2C[C@@H]1CCO1 [Compound 165a, 2-{[4-({2-[(4-chloro-2-fluorophenyl)methyl]-5-fluoropyrimidin-4-yl}oxy)piperidin-1-yl]methyl}-1-{[(2S)-oxetan-2-yl]methyl}-1H-1,3-benzodiazole-5-carboxylic acid]"
2,9.70,"N#CC1(Cn2c(CN3CCC(Oc4nc(Cc5ccc(Cl)cc5)ncc4F)CC3)nc3cc(-c4nnc(C(F)(F)F)[nH]4)ncc32)CC1 [Compound 178, 1-[(2-{[4-({2-[(4-chlorophenyl)methyl]-5-fluoropyrimidin-4-yl}oxy)piperidin-1-yl]methyl}-6-[5-(trifluoromethyl)-4H-1,2,4-triazol-3-yl]-3H-imidazo[4,5-c]pyridin-3-yl)methyl]cyclopropane-1-carbonitrile]"
3,9.62,"N#Cc1ccc(Cc2cccc(OC3CCN(Cc4nc5cc(-c6nnc(C(F)(F)F)[nH]6)ncc5n4C[C@@H]4CCO4)CC3)n2)c(F)c1 [Compound 190a, 3-fluoro-4-{[6-({1-[(3-{[(2S)-oxetan-2-yl]methyl}-6-[5-(trifluoromethyl)-4H-1,2,4-triazol-3-yl]-3H-imidazo[4,5-c]pyridin-2-yl)methyl]piperidin-4-yl}oxy)pyridin-2-yl]methyl}benzonitrile]"
4,7.91,CC(=O)Nc1ccc2c(c1)nc(CN1CCC(Oc3cccc(Cc4ccc(Cl)cc4F)n3)CC1)n2C[C@@H]1CCO1 [Compound 160a]
5,9.70,"Clc1ccc(Cc2nccc(OC3CCN(Cc4nc5cc(-c6nnn[nH]6)ccc5n4C[C@@H]4CCO4)CC3)n2)cc1 [Compound 107a, 2-{[4-({2-[(4-chlorophenyl)methyl]pyrimidin-4-yl}oxy)piperidin-1-yl]methyl}-1-{[(2S)-oxetan-2-yl]methyl}-5-(1H-1,2,3,4-tetrazol-5-yl)-1H-1,3-benzodiazole]"
6,10.03,"Cc1ncccc1C(=O)Nc1ccc2c(c1)nc(CN1CCC(Oc3ccnc(Cc4ccc(Cl)cc4)n3)CC1)n2C[C@@H]1CCO1 [Compound 103a, N-(2-{[4-({2-[(4-chlorophenyl)methyl]pyrimidin-4-yl}oxy)piperidin-1-yl]methyl}-1-{[(2S)-oxetan-2-yl]methyl}-1H-1,3-benzodiazol-5-yl)-2-methylpyridine-3-carboxamide]"
7,8.57,"COCCOc1ccc(C(=O)Nc2ccc3c(c2)nc(CN2CCC(Oc4ccnc(Cc5ccc(Cl)cc5F)n4)CC2)n3C[C@@H]2CCO2)cn1 [Compound 115a, N-(2-{[4-({2-[(4-chloro-2-fluorophenyl)methyl]pyrimidin-4-yl}oxy)piperidin-1-yl]methyl}-1-{[(2S)-oxetan-2-yl]methyl}-1H-1,3-benzodiazol-5-yl)-6-(2-methoxyethoxy)pyridine-3-carboxamide]"
8,7.37,"O=C(Nc1ccc2c(c1)nc(CN1CCC(Oc3ccnc(Cc4ccc(Cl)cc4F)n3)CC1)n2C[C@@H]1CCO1)c1ccc(-c2ccccc2)nc1 [Compound 119a, N-(2-{[4-({2-[(4-chloro-2-fluorophenyl)methyl]pyrimidin-4-yl}oxy)piperidin-1-yl]methyl}-1-{[(2S)-oxetan-2-yl]methyl}-1H-1,3-benzodiazol-5-yl)-6-phenylpyridine-3-carboxamide]"
